Assays:
giant foxtail [1] = experiment: Test A preemergence; format: in vivo, Setaria faberii; conditions: for Plant response rating, Foxtail, Giant: 125 g ai/ha; for Foxtail, Giant plant response rating: 500 g ai/ha
In short: (§1)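 Compounds in non-phytotoxic solvent with surfactant applied as soil spray preemergence, or postemergence to plants 2-10 cm at one- to two-leaf stage, in loam/sand. After approximately 10 days in greenhouse, injury rated visually versus untreated controls, 0 (no effect) to 100 (complete control).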

pigweed [2] = experiment: Test A preemergence; format: in vivo, Amaranthus retroflexus; conditions: for Plant response rating, Pigweed: 125 g ai/ha; for Pigweed plant response rating: 500 g ai/ha
In short: as §1

giant foxtail [3] = experiment: Test A postemergence; format: in vivo, Setaria faberii; conditions: 0 to 100 scale where 0 is no effect and 100 is complete control
In short: as §1

pigweed [4] = experiment: Test A postemergence; format: in vivo, Amaranthus retroflexus; conditions: 0 to 100 scale where 0 is no effect and 100 is complete control
In short: as §1

wheat, winter = experiment: Test C postemergence; format: in vivo, Triticum aestivum; conditions: for Plant response rating (0 to 100), Wheat: 125 g ai/ha, postemergence; for Plant response rating, Wheat: Postemergence, scale 0 to 100 (0 no effect, 100 complete control)
Excerpt: (§2) Seeds of plant species selected from blackgrass (Alopecurus myosuroides), Italian ryegrass (Lolium multiflorum), wheat, winter (winter wheat, Triticum aestivum), galium (catchweed bedstraw, Galium aparine), corn (Zea mays), large (Lg) crabgrass (Digitaria sanguinalis), giant foxtail (Setaria faberii), johnsongrass (Sorghum halepense), lambsquarters (Chenopodium album), morningglory (Ipomoea coccinea), yellow nutsedge (Cyperus esculentus), pigweed (Amaranthus retroflexus), ragweed (common ragweed, Ambrosia elatior), soybean (Glycine max), barnyardgrass (Echinochloa crus-galli), oilseed rape (Brassica napus), waterhemp (common waterhemp, Amaranthus rudis), kochia (Kochia scoparia), wild oat (Avena fatua), surinam grass (Brachiaria decumbens), foxtail, green (green foxtail, Setaria viridis), goosegrass (Eleusine indica), bromegrass, downy (downy bromegrass, Bromus tectorum), nightshade (eastern black nightshade, Solanum ptycanthum), cocklebur (common cocklebur, Xanthium strumarium), cupgrass, woolly (woolly cupgrass, Eriochloa villosa), bermudagrass (Cynodon dactylon), sunflower, (common oilseed sunflower, Helianthus annuus), Russian thistle (Salsola kali), and velvetleaf (Abutilon theophrasti) were planted into a blend of loam soil and sand and treated preemergence with test chemicals formulated in a non-phytotoxic solvent mixture which included a surfactant.
(§3) At the same time, plants selected from these crop and weed species and also barley, winter (winter barley, Hordeum vulgare), windgrass (Apera spica-venti), chickweed (common chickweed, Stellaria media), deadnettle (henbit deadnettle, Lamium amplexicaule), and canarygrass (littleseed canarygrass, Phalaris minor) were planted in pots containing Redi-Earth® planting medium (Scotts Company, 14111 Scottslawn Road, Marysville, Ohio 43041) comprising spaghnum peat moss, vermiculite, wetting agent and starter nutrients and treated with postemergence applications of test chemicals formulated in the same manner. Plants ranged in height from 2 to 18 cm (1- to 4-leaf stage) for postemergence treatments. Treated plants and controls were maintained in a greenhouse for 13 to 15 days, after which time all species were compared to controls and visually evaluated. Plant response ratings, summarized in Table C, are based on a scale of 0 to 100 where 0 is no effect and 100 is complete control. A dash (-) response means no test result.

giant foxtail [5] = experiment: Test C postemergence; format: in vivo, Setaria faberii; conditions: for Foxtail, Giant plant response rating: 16 g ai/ha, visual rating; for Foxtail, Giant plant response rating / Plant response rating (0 to 100), Foxtail, Giant: postemergence; for Foxtail, Giant plant response rating / Plant response rating, Foxtail, Giant: scale 0 to 100 (0 no effect, 100 complete control); for Plant response rating (0 to 100), Foxtail, Giant: 125 g ai/ha; for Plant response rating, Foxtail, Giant: Postemergence
Excerpt: as §2, §3

ragweed = experiment: Test C postemergence; format: in vivo, Ambrosia elatior; conditions: for Plant response rating (0 to 100), Ragweed: 125 g ai/ha, postemergence; for Plant response rating, Ragweed: Postemergence, scale 0 to 100 (0 no effect, 100 complete control)
Excerpt: as §2, §3

soybean = experiment: Test C postemergence; format: in vivo, Glycine max; conditions: for Plant response rating (0 to 100), Soybean: 125 g ai/ha, postemergence; for Plant response rating, Soybean: Postemergence, scale 0 to 100 (0 no effect, 100 complete control)
Excerpt: as §2, §3

wild oat = experiment: Test C postemergence; format: in vivo, Avena fatua; conditions: for Plant response rating (0 to 100), Oat, Wild: 125 g ai/ha, postemergence; for Plant response rating, Oat, Wild: Postemergence, scale 0 to 100 (0 no effect, 100 complete control)
Excerpt: as §2, §3

velvetleaf = experiment: Test C postemergence; format: in vivo, Abutilon theophrasti; conditions: for Plant response rating (0 to 100), Velvetleaf: 125 g ai/ha, postemergence; for Plant response rating, Velvetleaf: Postemergence, scale 0 to 100 (0 no effect, 100 complete control)
Excerpt: as §2, §3

chickweed = experiment: Test C postemergence; format: in vivo, Stellaria media; conditions: for Chickweed plant response rating: 16 g ai/ha, visual rating; for Chickweed plant response rating / Plant response rating (0 to 100), Chickweed: postemergence; for Chickweed plant response rating / Plant response rating, Chickweed: scale 0 to 100 (0 no effect, 100 complete control); for Plant response rating (0 to 100), Chickweed: 125 g ai/ha; for Plant response rating, Chickweed: Postemergence
Excerpt: as §2, §3

[6] = 0 to 100 scale where 0 is no effect and 100 is complete control
[7] = 0 to 100 scale, 0 no effect, 100 complete control, approx. 10 days

| Compound | Plant response rating, Foxtail, Giant (giant foxtail [1]; [6]) | Foxtail, Giant plant response rating (giant foxtail [1]; [7]) | Plant response rating, Pigweed (pigweed [2]; [6]) | Pigweed plant response rating (pigweed [2]; [7]) | Plant response rating, Foxtail, Giant (giant foxtail [3]; 125 g ai/ha) | Plant response rating, Foxtail, Giant (giant foxtail [3]; 500 g ai/ha) | Plant response rating, Pigweed (pigweed [4]; 125 g ai/ha) | Plant response rating, Pigweed (pigweed [4]; 500 g ai/ha) | Plant response rating (0 to 100), Wheat (wheat, winter) | Plant response rating, Wheat (wheat, winter; 31 g ai/ha, 13 to 15 days) | Plant response rating, Wheat (wheat, winter; 62 g ai/ha) | Foxtail, Giant plant response rating (giant foxtail [5]; 13 to 15 days) | Plant response rating (0 to 100), Foxtail, Giant (giant foxtail [5]) | Plant response rating, Foxtail, Giant (giant foxtail [5]; 31 g ai/ha, 13 to 15 days) | Plant response rating, Foxtail, Giant (giant foxtail [5]; 62 g ai/ha) | Plant response rating (0 to 100), Ragweed (ragweed) | Plant response rating, Ragweed (ragweed; 31 g ai/ha, 13 to 15 days) | Plant response rating, Ragweed (ragweed; 62 g ai/ha) | Plant response rating (0 to 100), Soybean (soybean) | Plant response rating, Soybean (soybean; 31 g ai/ha, 13 to 15 days) | other results |
| --- | --- | --- | --- | --- | --- | --- | --- | --- | --- | --- | --- | --- | --- | --- | --- | --- | --- | --- | --- | --- | --- |
| CC(C)c1cnn(-c2c(C#N)cccc2Oc2ncc(Cl)cn2)c1 [Compound 85] | 100 | 100 | 100 | 100 | 70 | 90 | 80 | 100 | 0 | 0 | 5 | 5 | 15 | 10 | 10 | 65 | 20 | 20 | 90 | 75 | Plant response rating, Soybean (soybean; 62 g ai/ha): 65; Plant response rating (0 to 100), Oat, Wild (wild oat): 5; Plant response rating, Oat, Wild (wild oat; 31 g ai/ha, 13 to 15 days): 0; Plant response rating, Oat, Wild (wild oat; 62 g ai/ha): 5; Plant response rating (0 to 100), Velvetleaf (velvetleaf): 55; Plant response rating, Velvetleaf (velvetleaf; 31 g ai/ha, 13 to 15 days): 45; Plant response rating, Velvetleaf (velvetleaf; 62 g ai/ha): 45; Chickweed plant response rating (chickweed; 13 to 15 days): 5; Plant response rating (0 to 100), Chickweed (chickweed): 40; Plant response rating, Chickweed (chickweed; 31 g ai/ha, 13 to 15 days): 40; Plant response rating, Chickweed (chickweed; 62 g ai/ha): 50 |
| Cc1cnc(Oc2cccc(C#N)c2-n2cc(C#N)cn2)nc1 [Compound 90] | 90 | 100 | 100 | 100 | 80 | 90 | 100 | 100 | 0 | 0 | 0 | 35 | 20 | 15 | 20 | 65 | 40 | 50 | 60 | 65 | Plant response rating, Soybean (soybean; 62 g ai/ha): 75; Plant response rating (0 to 100), Oat, Wild (wild oat): 5; Plant response rating, Oat, Wild (wild oat; 31 g ai/ha, 13 to 15 days): 0; Plant response rating, Oat, Wild (wild oat; 62 g ai/ha): 5; Plant response rating (0 to 100), Velvetleaf (velvetleaf): 60; Plant response rating, Velvetleaf (velvetleaf; 31 g ai/ha, 13 to 15 days): 55; Plant response rating, Velvetleaf (velvetleaf; 62 g ai/ha): 60; Chickweed plant response rating (chickweed; 13 to 15 days): 5; Plant response rating (0 to 100), Chickweed (chickweed): 50; Plant response rating, Chickweed (chickweed; 31 g ai/ha, 13 to 15 days): 30; Plant response rating, Chickweed (chickweed; 62 g ai/ha): 15 |
| N#Cc1cnn(-c2c(C#N)cccc2Oc2ncc(Br)cn2)c1 [Compound 135] | 70 |  | 100 |  |  | 100 |  | 100 |  |  |  |  |  |  |  |  |  |  |  |  | Foxtail, Giant plant response rating (giant foxtail [1]; [6]): 100; Pigweed plant response rating (pigweed [2]; [6]): 100; Foxtail, Giant plant response rating (giant foxtail [3]; 125 g ai/ha): 70; Pigweed plant response rating (pigweed [4]; 125 g ai/ha): 70 |

From patent US9695155B2, “Herbicidal substituted pyrimidinyloxy benzene compounds” (E. I. DU PONT DE NEMOURS AND COMPANY, priority 2013, dated 2017)
